Measurements: US6982283B2, “Method for treating drug-induced constipation” (Sucampo AG, priority 2001, dated 2006)
Counter-ions that a name gives are not always drawn. Marks after values point to notes of the source that are not given here.

Columns and labels:
Type in all cases: in vivo
[1] = system: Male ICR mice; test: Antagonism to morphine-induced constipation: graphite marker in the caecum; conditions: for Effect on morphine-induced constipation: at the clinical daily dosage and at 10 times of the clinical daily dosage
[2] = system: Male ICR mice; test: Antagonism to imipramine-induced constipation: carbon marker in the caecum
Description: Male ICR mice were fasted overnight in wire-bottomed cages to prevent coprophagia, and 10 mice were used for each group. Imipramine hydrochloride (Wako Pure Chemical Industries, Ltd., Osaka, Japan) at 60 mg/kg was injected intraperitoneally to the animals. Immediately after the imipramine-injection, 0.1 mL of carbon marker (10% carbon powder suspension in 5% gum Arabic) and vehicle (physiological saline solution containing 0.01% polysorbate 80 and 0.5% ethanol) or test substance (13,14-dihydro-15-keto-16,16-difluoro-PGE1) in an administration volume of 5 mL/kg were orally administered. A normal control group received carbon marker and vehicle in the above volume orally without the imipramine-injection. One hundred and fifty minutes after the administration of carbon marker, animals were sacrificed by cervical dislocation, and examined the caecum for the presence of carbon marker. It was judged as a positive response when carbon marker was found in the caecum (positive scores).
The effect to the imipramine-induced constipation was evaluated on the cathartic (sennoside) clinically used for the treatment of the constipation in patients. Preparation and dose levels of sennoside were the same as described in example 2. The experimental procedure was the same as described in example 4.

[3] = system: Male ICR mice; test: Effect on analgesic action of morphine: tail-pinch response time
Description: Male ICR mice were fasted overnight in wire-bottomed cages to prevent coprophagia. The tail of the animal was pinched with clamp forceps, and the response time from the tail-pinch to fierce striking, biting or crying was measured. 18 mice whose response time of 2 second or shorter were used as test animals. […] Immediately after the morphine-injection, vehicle (physiological saline containing 0.01% polysorbate 80 and 0.5% ethanol) or 1, 10, or 100 μg/kg test substance (13,14-dihydro-15-keto-16,16-difluoro-PGE1) dissolved in the vehicle was administered orally in an administration volume of 5 mL/kg. The animals of normal control group received vehicle orally in the above volume without morphine-injection.
The response time of each animal following tail-pinch was measured 30, 60, 90, 120 and 150 minutes after the administration. If a mouse took longer than 10 seconds to respond, measurement was stopped to avoid injuring the tail tissue, and the response time was recorded as 10 second.

[4] = morphine 5 mg/kg i.p. + sodium picosulfate 0.15 mg/kg, 150 min after graphite marker
[5] = morphine 5 mg/kg i.p. + sodium picosulfate 1.5 mg/kg, 150 min after graphite marker
[6] = imipramine 60 mg/kg i.p. + test substance 10 μg/kg orally, 150 min after carbon marker
[7] = imipramine 60 mg/kg i.p. + test substance 100 μg/kg orally, 150 min after carbon marker
[8] = imipramine 60 mg/kg i.p. + vehicle orally, Example 4, Table 5
[9] = imipramine 60 mg/kg i.p. + vehicle, Example 5, Table 6
[10] = imipramine 60 mg/kg i.p. + sennoside 0.48 μg/kg, 150 min after carbon marker
[11] = imipramine 60 mg/kg i.p. + sennoside 4.8 μg/kg, 150 min after carbon marker
[12] = morphine 5 mg/kg i.p. + sennoside 0.48 mg/kg, 150 min after graphite marker
[13] = morphine 5 mg/kg i.p. + sennoside 4.8 mg/kg, 150 min after graphite marker

O=S(=O)(O)Oc1ccc(C(c2ccc(OS(=O)(=O)O)cc2)c2ccccn2)cc1 [sodium picosulfate, Sodium picosulfate]
Effect on morphine-induced constipation [1]: no effect | Number of animals with positive scores/Number of animals tested [1, 4]: 3/10 | Ratio of animals with positive scores [1, 4]: 30% | Number of animals with positive scores/Number of animals tested [1, 5]: 4/10 | Ratio of animals with positive scores [1, 5]: 40%

CCCCC(F)(F)C(=O)CCC1C(O)CC(=O)C1CCCCCCC(=O)O (centres unmarked) [test substance, 13,14-dihydro-15-keto-16,16-difluoro-PGE1]
Number of animals with positive scores/Number of animals tested [2, 6]: 3/10 | Ratio of animals with positive scores [2, 6]: 30% | Number of animals with positive scores/Number of animals tested [2, 7]: 7/10** | Ratio of animals with positive scores [2, 7]: 70% | Response time, mean ± S.E. ([3]; morphine 5 mg/kg i.p. + test substance 1 μg/kg orally, 30 min after administration): 3.2 ± 0.7 s | Response time, mean ± S.E. ([3]; morphine 5 mg/kg i.p. + test substance 1 μg/kg orally, 60 min after administration): 2.3 ± 0.6^+ sec. | Response time, mean ± S.E. ([3]; morphine 5 mg/kg i.p. + test substance 1 μg/kg orally, 90 min after administration): 1.5 ± 0.2 s | Response time, mean ± S.E. ([3]; morphine 5 mg/kg i.p. + test substance 1 μg/kg orally, 120 min after administration): 1.3 ± 0.1 s | Response time, mean ± S.E. ([3]; morphine 5 mg/kg i.p. + test substance 1 μg/kg orally, 150 min after administration): 1.3 ± 0.1 s | Response time, mean ± S.E. ([3]; morphine 5 mg/kg i.p. + test substance 1 μg/kg orally, before administration): 1.0 ± 0.1 s | Response time, mean ± S.E. ([3]; morphine 5 mg/kg i.p. + test substance 10 μg/kg orally, 30 min after administration): 3.4 ± 0.5 s | Response time, mean ± S.E. ([3]; morphine 5 mg/kg i.p. + test substance 10 μg/kg orally, 60 min after administration): 1.8 ± 0.2 s | Response time, mean ± S.E. ([3]; morphine 5 mg/kg i.p. + test substance 10 μg/kg orally, 90 min after administration): 1.4 ± 0.1 s | Response time, mean ± S.E. ([3]; morphine 5 mg/kg i.p. + test substance 10 μg/kg orally, 120 min after administration): 1.3 ± 0.1 s | Response time, mean ± S.E. ([3]; morphine 5 mg/kg i.p. + test substance 10 μg/kg orally, 150 min after administration): 1.2 ± 0.1 s | Response time, mean ± S.E. ([3]; morphine 5 mg/kg i.p. + test substance 10 μg/kg orally, before administration): 1.0 ± 0.1 s | Response time, mean ± S.E. ([3]; morphine 5 mg/kg i.p. + test substance 100 μg/kg orally, 30 min after administration): 2.9 ± 0.6 s | Response time, mean ± S.E. ([3]; morphine 5 mg/kg i.p. + test substance 100 μg/kg orally, 60 min after administration): 1.8 ± 0.3 s | Response time, mean ± S.E. ([3]; morphine 5 mg/kg i.p. + test substance 100 μg/kg orally, 90 min after administration): 1.5 ± 0.1 s | Response time, mean ± S.E. ([3]; morphine 5 mg/kg i.p. + test substance 100 μg/kg orally, 120 min after administration): 1.2 ± 0.1 s | Response time, mean ± S.E. ([3]; morphine 5 mg/kg i.p. + test substance 100 μg/kg orally, 150 min after administration): 1.3 ± 0.1 s | Response time, mean ± S.E. ([3]; morphine 5 mg/kg i.p. + test substance 100 μg/kg orally, before administration): 1.0 ± 0.1 s | Effect on the analgesic action of morphine ([3]; test substance 1, 10 or 100 μg/kg orally, compared with morphine+vehicle group): did not affect | Ratio of animals with positive scores ([1]; morphine 5 mg/kg i.p. + test substance 1 μg/kg orally, 150 min after graphite marker): 60% | Ratio of animals with positive scores ([1]; morphine 5 mg/kg i.p. + test substance 10 μg/kg orally, 150 min after graphite marker): 87% | Ratio of animals with positive scores ([1]; morphine 5 mg/kg i.p. + test substance 100 μg/kg orally, 150 min after graphite marker): 93% | Antagonism of morphine-induced constipation compared with control (morphine+vehicle) group ([1]; test substance 1, 10 or 100 μg/kg orally immediately after morphine): significantly antagonized

CN(C)CCCN1c2ccccc2CCc2ccccc21 [Imipramine, Imipramine hydrochloride]
Number of animals with positive scores/Number of animals tested [2, 8]: 1/10 | Ratio of animals with positive scores [2, 8]: 10% | Number of animals with positive scores/Number of animals tested [2, 9]: 1/10 | Ratio of animals with positive scores [2, 9]: 10%

Sennoside
Effect on the imipramine-induced constipation ([2]; Example 5, results of Table 6): no effect | Number of animals with positive scores/Number of animals tested [2, 10]: 2/10 | Ratio of animals with positive scores [2, 10]: 20% | Number of animals with positive scores/Number of animals tested [2, 11]: 2/10 | Ratio of animals with positive scores [2, 11]: 20% | Effect on morphine-induced constipation [1]: no effect | Number of animals with positive scores/Number of animals tested [1, 12]: 2/10 | Ratio of animals with positive scores [1, 12]: 20% | Number of animals with positive scores/Number of animals tested [1, 13]: 2/10 | Ratio of animals with positive scores [1, 13]: 20%

CN1CC[C@]23c4c5ccc(O)c4O[C@H]2[C@@H](O)C=C[C@H]3[C@H]1C5.Cl [Morphine, Morphine hydrochloride, reference compound]
Response time, mean ± S.E. ([3]; morphine 5 mg/kg i.p. + vehicle orally, 30 min after administration): 2.8 ± 0.6 s | Response time, mean ± S.E. ([3]; morphine 5 mg/kg i.p. + vehicle orally, 60 min after administration): 1.9 ± 0.3 s | Response time, mean ± S.E. ([3]; morphine 5 mg/kg i.p. + vehicle orally, 90 min after administration): 1.8 ± 0.4^+ sec. | Response time, mean ± S.E. ([3]; morphine 5 mg/kg i.p. + vehicle orally, 120 min after administration): 1.4 ± 0.2 s | Response time, mean ± S.E. ([3]; morphine 5 mg/kg i.p. + vehicle orally, 150 min after administration): 1.2 ± 0.1 s | Response time, mean ± S.E. ([3]; morphine 5 mg/kg i.p. + vehicle orally, before administration): 1.0 ± 0.1 s | Number of animals with positive scores/Number of animals tested ([1]; morphine 5 mg/kg i.p. + vehicle (0.5% tragacanth solution), Example 2, Table 2): 2/10 | Number of animals with positive scores/Number of animals tested ([1]; morphine 5 mg/kg i.p. + vehicle (physiological saline), Example 2, Table 3): 3/10 | Number of animals with positive scores/Number of animals tested ([1]; morphine 5 mg/kg i.p. + vehicle (saline, 0.01% polysorbate 80, 0.5% ethanol) orally, Example 1, Table 1): 3 | Number of animals with positive scores/Number of animals tested ([1]; morphine 5 mg/kg i.p. + vehicle (saline, 0.01% polysorbate 80, 0.5% ethanol) orally, Example 1, Table 1, hydrochloride): 3/15
